This note sets out measurements from ChEMBL document CHEMBL4002541 (Medchemcomm, 2014).

In assay [1] the target is T1, Melatonin receptor type 1A (Homo sapiens, UniProt P48039). The assay can be described thus: Partial agonist activity at human MT1 receptor expressed in CHO cells after 1 hr by [35S]GTPgammaS binding assay. Format: functional, cell-based.
The target of assay [2] is T2, 5-hydroxytryptamine receptor 2C (Homo sapiens, UniProt P28335).
T2 sequence (P28335 whole entry): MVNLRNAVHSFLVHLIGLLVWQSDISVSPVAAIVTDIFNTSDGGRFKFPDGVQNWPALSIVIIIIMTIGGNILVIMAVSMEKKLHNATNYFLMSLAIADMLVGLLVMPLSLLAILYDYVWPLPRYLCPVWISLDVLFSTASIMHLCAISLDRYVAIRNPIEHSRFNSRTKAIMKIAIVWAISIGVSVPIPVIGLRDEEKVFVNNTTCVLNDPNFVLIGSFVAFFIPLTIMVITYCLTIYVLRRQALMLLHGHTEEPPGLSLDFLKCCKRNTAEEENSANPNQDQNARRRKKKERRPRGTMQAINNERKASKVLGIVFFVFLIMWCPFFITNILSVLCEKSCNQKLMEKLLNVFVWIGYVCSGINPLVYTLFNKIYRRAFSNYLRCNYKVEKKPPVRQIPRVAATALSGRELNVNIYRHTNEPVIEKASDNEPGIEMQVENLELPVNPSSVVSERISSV
The assay can be described thus: Displacement of [3H]mesulergine from human 5HT2C (VSV) receptor expressed in CHO cell membranes after 60 mins by scintillation counting method.

In assay [3] the target is T3, 5-hydroxytryptamine receptor 2C (Homo sapiens) (UniProt P28335).
T3 sequence (whole entry): T2 sequence (P28335 whole entry)
The assay can be described thus: Antagonist activity at human 5HT2C (VSV) receptor expressed in CHO cells assessed as inhibition of 5-HT-induced [3H]inositol phosphate production preincubated for 20 mins followed by 5-HT addition. Format: functional, cell-based.

The target of assay [4] is T4, Melatonin receptor type 1B (Homo sapiens) (UniProt P49286).
T4 sequence (whole entry): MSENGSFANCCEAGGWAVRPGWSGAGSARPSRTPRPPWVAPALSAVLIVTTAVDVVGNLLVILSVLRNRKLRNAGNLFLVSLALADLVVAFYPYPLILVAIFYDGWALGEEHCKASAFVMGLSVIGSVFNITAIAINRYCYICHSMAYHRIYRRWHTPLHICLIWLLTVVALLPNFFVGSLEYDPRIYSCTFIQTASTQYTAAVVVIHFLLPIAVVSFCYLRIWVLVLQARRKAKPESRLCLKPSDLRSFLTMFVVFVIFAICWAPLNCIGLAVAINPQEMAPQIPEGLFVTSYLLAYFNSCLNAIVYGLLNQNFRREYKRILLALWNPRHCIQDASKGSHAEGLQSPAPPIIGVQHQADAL
Put plainly: (§1) Partial agonist activity at human MT2 receptor expressed in CHO cells after 1 hr by [35S]GTPgammaS binding assay. The class given is functional, cell-based. Background: GTPγS resists hydrolysis and so accumulates on activated G proteins.

Assay [5] addresses T5, Melatonin receptor type 1B (Homo sapiens, UniProt P49286).
T5 sequence (P49286 whole entry): T4 sequence (whole entry)
The description is as §1. Format: functional, cell-based.

Assay [6] relates to Mus musculus. The assay can be described thus: Antidepressant activity in OF1 mouse assessed as reduction in immobility time at 0.1 to 10 mg/kg administered 40 mins prior to testing measured for 6 mins by tail suspension test. Format: functional, organism-based.
Assay [7] has as its target T3, 5-hydroxytryptamine receptor 2C (Homo sapiens). Put plainly: Antagonist activity at human 5HT2C (VSV) receptor expressed in CHO cells assessed as inhibition of 5-HT-induced [3H]inositol phosphate production preincubated for 20 mins followed by 5-HT addition relative to 5-HT. Format: functional, cell-based.
Assay [8] addresses T1, Melatonin receptor type 1A. Put plainly: Displacement of 2-[125I]Iodomelatonin from human MT1 receptor expressed in CHO cell membranes after 120 mins.
For assay [9], the target named is T5, Melatonin receptor type 1B. The assay can be described thus: Displacement of 2-[125I]Iodomelatonin from human MT2 receptor expressed in CHO cell membranes after 120 mins.
The target of assay [10] is T5, Melatonin receptor type 1B. Put plainly: Agonist activity at human MT2 receptor expressed in CHO cells after 1 hr by [35S]GTPgammaS binding assay. The class given is functional, cell-based.
Assay [11] has as its target T1, Melatonin receptor type 1A. The assay can be described thus: Agonist activity at human MT1 receptor expressed in CHO cells after 1 hr by [35S]GTPgammaS binding assay. Format: functional, cell-based.
For assay [12], the system named is Mus musculus. Put plainly: Antidepressant activity in OF1 mouse assessed as reduction in immobility time at 0.1 mg/kg administered 40 mins prior to testing measured for 6 mins by tail suspension test. Format: functional, organism-based.
Assay [13] has as its system Mus musculus. The assay can be described thus: Antidepressant activity in OF1 mouse assessed as reduction in immobility time at 1 to 10 mg/kg administered 40 mins prior to testing measured for 6 mins by tail suspension test. Format: functional, organism-based.
Another assay is filed under the species Homo sapiens. Put plainly: Selectivity ratio of Ki for human MT1 receptor to Ki for human MT2 receptor.
Assay [14] relates to Mus musculus. Put plainly: Antidepressant activity in OF1 mouse assessed as reduction in immobility time at 64 mg/kg administered 40 mins prior to testing measured for 6 mins by tail suspension test. Format: functional, organism-based.
Assay [15] has as its target T5, Melatonin receptor type 1B. Put plainly: Binding affinity to MT2 receptor (unknown origin).
The target of assay [16] is T1, Melatonin receptor type 1A. The assay can be described thus: Binding affinity to MT1 receptor (unknown origin).

The structures appear in SMILES notation. Activity calls are given as the source filed them. The rule behind the calls is not given here.

T1 sequence (P48039 whole entry): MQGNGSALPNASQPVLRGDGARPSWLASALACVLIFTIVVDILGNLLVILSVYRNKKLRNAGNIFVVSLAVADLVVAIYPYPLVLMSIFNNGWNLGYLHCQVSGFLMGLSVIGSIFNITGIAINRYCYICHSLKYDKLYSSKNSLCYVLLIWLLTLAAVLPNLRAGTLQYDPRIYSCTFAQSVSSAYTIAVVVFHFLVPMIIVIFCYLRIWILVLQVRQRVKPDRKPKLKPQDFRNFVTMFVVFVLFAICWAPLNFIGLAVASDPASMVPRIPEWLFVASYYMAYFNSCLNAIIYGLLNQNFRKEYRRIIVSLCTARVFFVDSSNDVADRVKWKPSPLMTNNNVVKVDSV

In general, EC50 refers to the concentration giving half of the maximal effect. Low values mean an effect from little substance, high ones a need for much substance. One may read the Emax as the greatest response seen or fitted, relative to the assay's reference. The term Ki denotes a dissociation constant, usually derived from enzyme kinetics or from competition with a known ligand. Read a high Ki as weaker binding. The term pKb denotes the Kb on a negative log10 scale, so that one unit is a factor of ten. `COc1ccc2cccc([C@@H](CO)CNC(=O)CF)c2c1`: the EC50 in [1] was 79.4 nM; in assay [5] it was 0.794 nM. Moreover, the maximum response (Emax) came to 62% in assay [1] and 99% in [4]. The results for the Ki in assay [2], in assay [8] and in [9] were 186 nM, 5.89 nM and 0.977 nM, respectively. Moreover, the pKb in assay [3] turned out to be 6.3. In the assay with Mus musculus [6], the outcome was Active. The Imax in assay [7] was 97%.
`COc1ccc2cccc(C(CO)CNC(=O)CF)c2c1` (racemic): the EC50 in assay [10] is 0.631 nM; in [11] it was 25.1 nM. The figures for the Ki in [2] and in [9] were 166 nM and 0.537 nM, respectively.
In the case of `CCC(=O)NC[C@H](CO)c1cccc2ccc(OC)cc12`, the result in the assay on Mus musculus [12] was inactive. Further, the figures for the half-maximal effective concentration (EC50) in [1] and in assay [5] were 19.5 nM and 1.26 nM, respectively. For the same compound, the Emax in [1] came to 59%; in [4], 107%. In addition, the Activity entry in the assay with Mus musculus [13] was “Dose-dependent effect”. Besides, the inhibition constant (Ki) in [2] was 417 nM; in assay [8] it was 3.39 nM; in [9], 0.316 nM. The negative logarithm of the Kb (pKb) in [3] was 6. Further, in [7], the Imax stood at 79%.
In the case of `COc1ccc2cccc([C@H](CO)CNC(=O)CF)c2c1`, the Ratio Ki in the assay listed under Homo sapiens came to 7. Further, the concentration giving a half-maximal response (EC50) in [10] was 25.1 nM; in [11] it was 1050 nM. In addition, the Ki in assay [2] was greater than 10000 nM; in [8], 347 nM; in assay [9] it was 52.5 nM. In the assay on Mus musculus [6], the outcome was inactive.
For `CN(C)CCCN1c2ccccc2CCc2ccccc21`, the result with Mus musculus [14] was Active.
As to `CCC(=O)NCC(CO)c1cccc2ccc(OC)cc12` (racemic), the EC50 in assay [10] is 2.75 nM; in [11], 49 nM. In addition, the inhibitory constant (Ki) in assay [2] is 708 nM; in assay [8], 1.35 nM; in assay [9], 2.95 nM.
The corresponding values for `COc1ccc2cccc(C(CO)CNC(=O)C(F)F)c2c1` (stereo not drawn) are 0.372 nM, 10.2 nM, 692 nM, 1.91 nM and 0.347 nM.
With `CCC(=O)NC[C@@H](CO)c1cccc2ccc(OC)cc12`, the Ratio Ki in the assay listed under Homo sapiens was determined as 53. Also, the concentration for a half-maximal effect (EC50) was 7.41 nM in assay [10] and 389 nM in [11]. For the same compound, the Ki was greater than 10000 nM in assay [2], 182 nM in assay [8] and 5.5 nM in [9]. Further, in the assay with Mus musculus [6], the outcome was inactive.
Take `COc1ccc2cccc(C(CO)CNC(C)=O)c2c1` (stereo not drawn): the concentration for a half-maximal effect (EC50) is 145 nM in assay [10] and 72.4 nM in assay [11]. Further, the Ki was 229 nM in assay [2], 11 nM in assay [8] and 13.8 nM in assay [9].
As to `COc1ccc2cccc(CCNC(C)=O)c2c1`, the Imax in [7] turned out to be 98%.
Take `COc1cc2c([C@@H](C)CNC(C)=O)c[nH]c2cc1Cl`: the Ki was 0.0398 nM in assay [15] and 0.0794 nM in [16].
